Test results taken from patent publication US20110209699A1, “COMBINATION OF DEHYDROEPIANDROSTERONE OR DEHYDROEPIANDROSTERONE-SULFATE WITH A LIPOXYGENASE INHIBITOR FOR TREATMENT OF ASTHMA OR CHRONIC OBSTRUCTIVE PULMONARY DISEASE” (priority 2003, published 2011).

Columns and labels:
Intracellular adenosine = experiment: In vivo effect on adenosine levels in various rat tissues; parameters: species or system Fischer 344 rats; conditions: for Intracellular adenosine (nmols)/mg protein, Brain: rat brain, control 0.5 ± 0.04
Method: Folinic acid (50 mg/kg) was administered intraperitoneally once daily for fourteen days. […] Hearts were removed from animals and flash frozen in liquid nitrogen with 10 s of death. Liver and lungs were removed en bloc and flash frozen with 30 s of death. Brain tissue was subsequently dissected.

[1] = HPLC analysis of drug degradation during jet milling micronization; assay type: physicochemical; conditions: single and double pass jet-milled powder vs unmilled standard, HPLC peak area
Method: Approximately 1 g sample was passed through the jet mill, once, and approximately 2 g sample were passed through the jet mill twice. […] The resulting solution was sonicated for 3 minutes and appeared fully dispersed. The dispersed solutions were tested on a Malvern Mastersizer X with a small volume sampler (SVS) attachment. One sample of dispersed material was tested 5 times. The median particle size or D (v, 0.5) of unmilled material was 52.56 μm and the % RSD (relative standard deviation) was 7.61 for the 5 values. The D (v, 0.5) for a single pass through the jet mill was 3.90 μm and the % RSD was 1.27, and the D (v, 0.5) from a double pass through the jet mill 3.25 μm and the % RSD was 3.10.
Two vials (A; single-pass; 150 mg) and (B double-pass; 600 mg) of the micronized drug were available for determining drug degradation during jet milling micronization. […] The chromatographic peak area for the HPLC assay of the unmilled drug standard solution (10 mg/ml) gave a value of 23,427. […] The chromatographic peak areas for vials A and B were 11,979 and 11,677, respectively.

HT-29 SF cells [2] = experiment: Reversal of DHEA-mediated growth inhibition; assay type: cell-based, human; conditions: 25 μM DHEA, 48 hour treatment; MVA 2 μM, SQ 80 μM, CH 15 μg/ml, RN 30 μM each, DN 20 μM each
HT-29 SF cells [3] = experiment: Reversal of DHEA effect on cell cycle; assay type: cell-based, human; conditions: 25 μM DHEA
[4] = Solubility of DHEA-S as a function of NaCl concentration and temperature; assay type: physicochemical; conditions: for equilibrium constant Ksp=[DHEA-S-][Na+]: slope of solubility vs reciprocal sodium concentration
Source text: Inhalation of pure water can produce a cough stimulus. […] The temperature effect is weaker at high NaCl concentrations.

HT-29 SF cells [5] = experiment: DHEA effect on cell cycle (flow cytometry); assay type: cell-based, human; conditions: 25, 50 or 200 μM; 24, 48, 72 hours; propidium iodide DNA content
HT-29 SF cells [6] = experiment: DHEA effect on cell growth (Coulter counter); conditions: 0, 12.5, 25, 50 or 200 μM; cell number at 0, 24, 48, 72 hours
Method: Cell cultures, HT-29 SF cells, which represent a subline of HY-29 cells (ATCC, Rockville, Md.) and are adapted for growth in completely defined serum-free PC-1 medium (Ventrex, Portland, Me.), were obtained. Stock cultures were maintained in this medium at 37° C. (in a humidified atmosphere containing 5% CO2).

[7] = Physicochemical testing before and after micronization; conditions: for Particle size (D50%): laser diffraction; for Water (% w/w): Karl Fischer
Method: Surface area is determined using five point BET analyses are performed with nitrogen as the adsorbing gas (P/Po=0.05 to 0.30) using a Micromeritics TriStar surface area analyzer. Particle size distributions are measured by laser diffraction using a Micromeritics Saturn Digisizer where the particles are suspended in mineral oil with sodium dioctyl sodium sulfosuccinate as a dispersing agent. Drug substance water content is measured by Karl Fischer titration (Schott Titroline KF). Pure water is used as the standard and all relative standard deviations for triplicates are less than 1%. Powder is added directly to the titration media.

[8] = Short-term solution stability of nebulizer formulation; assay type: physicochemical; conditions: 10 mg/mL in 0.12% NaCl, clear glass vials
Method: Aliquots of this solution are filled into clear glass vials and stored at RT (24-26° C.) and at 40° C. The samples are checked daily for DHEA-S content, DHEA content, and appearance. For each time point, duplicate samples are withdrawn and diluted from each vial. […] The study is stopped on day three. […] The solution should easily be stable for the day of reconstitution in a clinical trial. The following section describes the aerosol properties of this formulation.

[9] = system: rat peritoneal mast cells; experiment: Mast cell degranulation (histamine secretion) after compound 48/80; assay type: cell-based; conditions: at 0.1 uM; 0.1 μg/ml compound 48/80; 2 min at 37° C.
Source text: Leukotrienes are synthesized—though not exclusively by the mast cell (Gilchrist, M., McCauley, S. D., & Befus, A. D. (2004) Expression, localization, and regulation of NOS in human mast cell lines: effects on leukotriene production. Blood 104, 462-469). We determined whether DHEA-sulfate would reduce mast cell degranulation after stimulation with compound 48/80 in rat peritoneal mast cells. Mast cell degranulation was quantified by measurement of histamine, another substance contained within the secretory granules of mast cells. The release of histamine is believed to parallel the release of leukotrienes.
Freshly isolated rat peritoneal mast cells (2×10^5 cells) were pre-incubated for 5 min at 37° C. in a Balanced Salt Solution containing 150 mM NaCl (pH 7.4), 2.7 mM KCl, 0.9 mM CaCl2, 4 mM Na2HPO4, 2.7 mM KH2PO4, 1.75 mg/ml BSA and 0.1 μg/ml compound 48/80.
Following incubation, the mixture is cooled to 4° C. then centrifuged at 4500 rpm for 5 min. The supernatant is collected and mixed for 30 min at 4° C. with 5% TCA (trichloroacetic acid) to cause protein precipitation. […]
The amount of secreted histamine is quantified by measuring the fluorescence intensity at λex=360 nm and λem=450 nm using a spectrofluorimeter (GeminiXS, Molecular Devices). The results are expressed as a percent inhibition of control histamine secretion.

[10] = calculated for 20 mM Na+ (0.12% NaCl), Ksp 1316 mM^2, 15° C.

For Nc1nc(=O)c2c([nH]1)NCC(CNc1ccc(C(=O)N[C@@H](CCC(=O)O)C(=O)O)cc1)N2C=O (mixture of isomers) [Folinic Acid], the “Intracellular adenosine (nmols)/mg protein, Brain” value (Intracellular adenosine; once daily 14 days, DHEA 300 mg/kg or methyltestosterone 40 mg/kg by gavage, folinic acid 50 mg/kg i.p., alone or combined, mean ± SEM) was 0.72 ± 0.09 nmols/mg protein, the “Intracellular adenosine (nmols)/mg protein, Heart” value (shortened to “Intracellular adenosine … Heart”) (Intracellular adenosine; rat heart, once daily 14 days, DHEA 300 mg/kg or methyltestosterone 40 mg/kg by gavage, folinic acid 50 mg/kg i.p., alone or combined, mean ± SEM, control 10.6 ± 0.6) was 12.4 ± 2.1 nmols/mg protein and the “Intracellular adenosine (nmols)/mg protein, Liver” value (“Intracellular adenosine … Liver” for short) (Intracellular adenosine; rat liver, once daily 14 days, DHEA 300 mg/kg or methyltestosterone 40 mg/kg by gavage, folinic acid 50 mg/kg i.p., alone or combined, mean ± SEM, control 14.5 ± 1.0) was 16.4 ± 2.4 nmols/mg protein. For the same compound, the “adenosine levels when administered alone” value (Intracellular adenosine; rat, in vivo) was “increase in adenosine levels for all organs studied” and the “effect of coadministration on steroid-mediated adenosine depletion” value (Intracellular adenosine; rats, folinic acid 50 mg/kg i.p. with DHEA or methyltestosterone, 14 days) was “completely abrogated steroid-mediated adenosine depletion”.

For C[C@]12CC[C@H](OS(=O)(=O)[O-])CC1=CC[C@@H]1[C@@H]2CC[C@]2(C)C(=O)CC[C@@H]12.[Na+] [Anhydrous DHEA-S], the “drug degradation during jet milling micronization” value [1] was “no detectable degradation”.

With CC(C)CCC[C@@H](C)[C@H]1CC[C@H]2[C@@H]3CC=C4C[C@@H](O)CC[C@]4(C)[C@H]3CC[C@]12C [CH, cholesterol] the “reversal of DHEA-induced growth inhibition by medium supplement” value (HT-29 SF cells [2]) was “no such effect”, the “prevention of DHEA-induced S phase depletion by medium supplement” value (“prevention” below) (HT-29 SF cells [3]; 48 hours) was “very little effect” and the “prevention” value (HT-29 SF cells [3]; 72 hours) was “no effect”.

For C[C@]12CC[C@H](O)CC1=CC[C@@H]1[C@@H]2CC[C@]2(C)C(=O)CC[C@@H]12 [DHEA, 3β-hydroxyandrost-5-en-17-one], the “Intracellular adenosine … Heart” value (Intracellular adenosine; rat, in vivo) was 6.7 ± 0.5, the solubility in water ([4]; water) was “insoluble” and the “effect on cell cycle distribution” value (HT-29 SF cells [5]) was “G1 block in HT-29 SF cells in a time- and dose-dependent manner”. The inhibition of growth (HT-29 SF cells [6]) was “time- and dose-dependent inhibition of growth”.

With CC12CCC3C(CC=C4CC(OS(=O)(=O)[O-])CCC43C)C1CCC2=O.[Na+] (stereo not drawn) [DHEA-S dihydrate] the “Particle size (D50%)” value ([7]; Bulk, before micronization) was 31 microns, the “Water (% w/w)” value ([7]; Bulk) was 8.5 % w/w and the “Particle size (D50%)” value ([7]; Micronized (jet mill)) was 3.7 microns. The “Water (% w/w)” value ([7]; Micronized) was 8.4 % w/w and the “Surface area (m^2/g)” value ([7]; Micronized, five point BET) was 4.9 m^2/g.

For C[C@]12CC[C@H](OS(=O)(=O)[O-])CC1=CC[C@@H]1[C@@H]2CC[C@]2(C)C(=O)CC[C@@H]12.[Na+] [DHEA-S, sodium dehydroepiandrostenone sulfate], the “equilibrium constant Ksp=[DHEA-S-][Na+]” value ([4]; RT (24-25° C.)) was 2236 mM^2, the “estimated DHEA-S solution concentration” value [4, 10] was 10.7 mg/mL and the “estimated DHEA-S- solution concentration” value [4, 10] was 27.5 mM. The “equilibrium constant Ksp=[DHEA-S-][Na+]” value ([4]; refrigerated (7-8° C.)) was 665 mM^2, the “solution appearance on storage” value ([8]; 40° C.) was “became cloudy after two days of storage” and the “solution appearance on storage” value ([8]; RT (24-26° C.)) was “slight precipitate is observed on the third day”. The “maximal effect, percent inhibition of control histamine secretion” value [9] was 69.9%.

In the case of C[C@@](O)(CCO)CC(=O)O [MVA, mevalonic acid], the “reversal of DHEA-induced growth inhibition by medium supplement” value (HT-29 SF cells [2]) is reported as “partially overcome”, the “prevention” value (HT-29 SF cells [3]; 48 hours) is reported as “partially prevented this effect” and the “prevention” value (HT-29 SF cells [3]; 72 hours) is reported as “not after 72 hours”.

For C[C@]12CCC(=O)C=C1CC[C@@H]1[C@@H]2CC[C@@]2(C)[C@H]1CC[C@]2(C)O [Methyltestosterone], the “Intracellular adenosine (nmols)/mg protein, Brain” value (Intracellular adenosine; methyltestosterone 120 mg/kg, alone or + folinic acid 50 mg/kg, mean ± SEM) was 0.32 ± 0.03 nmols/mg protein, the “Intracellular adenosine … Heart” value (Intracellular adenosine; rat heart, methyltestosterone 120 mg/kg, alone or + folinic acid 50 mg/kg, mean ± SEM, control 10.6 ± 0.6) was 6.0 ± 0.4 nmols/mg protein and the “Intracellular adenosine … Liver” value (Intracellular adenosine; rat liver, methyltestosterone 120 mg/kg, mean ± SEM, control 14.5 ± 1.0) was 5.1 ± 0.5 nmols/mg protein. The “Intracellular adenosine … Liver” value (Intracellular adenosine; rat, in vivo) was 16.5 ± 0.9 nmols/mg protein.

In the case of CC(C)=CCC/C(C)=C/CC/C(C)=C/CC/C=C(\C)CC/C=C(\C)CCC=C(C)C [SQ, squalene], the “reversal of DHEA-induced growth inhibition by medium supplement” value (HT-29 SF cells [2]) is reported as “no such effect”.
